Experimental data: ChEMBL document CHEMBL1201862, “PubChem BioAssay data set” (2004)
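Tested at 5 concentrations; 48 h exposure; 96-well plates; endpoints linearly interpolated, else capped at highest concentration. Here, GI50 denotes the concentration required for 50% inhibition of growth.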 Calls of active or inactive are those of the source. Cut-off read from the data, not from the text of the source: active = GI50 up to about 1.1 µM and inactive = higher.

What was measured:
Assay in all cases: DTP human tumour cell line panel, 48 h
786-0 = test system: 786-0
A498 = test system: A498
A549 = test system: A549
ACHN = test system: ACHN
BT-549 = test system: BT-549
CAKI-1 = test system: CAKI-1
CCRF-CEM = test system: CCRF-CEM
COLO 205 = test system: COLO 205
DLD-1 = test system: DLD-1
DMS-114 = test system: DMS-114
DMS-273 = test system: DMS-273
DU-145 = test system: DU-145
EKVX = test system: EKVX
HCC 2998 = test system: HCC 2998
HCT-116 = test system: HCT-116
HCT-15 = test system: HCT-15
HL-60 = test system: HL-60
HOP-18 = test system: HOP-18
HOP-62 = test system: HOP-62
HOP-92 = test system: HOP-92
HT-29 = test system: HT-29
Hs-578T = test system: Hs-578T
IGROV-1 = test system: IGROV-1
K562 = test system: K562
KM-20L2 = test system: KM-20L2
KM12 = test system: KM12
LOX IMVI = test system: LOX IMVI
M14 = test system: M14
M19-MEL = test system: M19-MEL
MCF7 = test system: MCF7
MDA-MB-231 = test system: MDA-MB-231
MDA-MB-435 = test system: MDA-MB-435
MDA-N = test system: MDA-N
MOLT-4 = test system: MOLT-4
Malme-3M = test system: Malme-3M
NCI-H226 = test system: NCI-H226
NCI-H23 = test system: NCI-H23
NCI-H460 = test system: NCI-H460
NCI-H522 = test system: NCI-H522
NCI/ADR-RES = test system: NCI/ADR-RES
OVCAR-3 = test system: OVCAR-3
OVCAR-4 = test system: OVCAR-4
OVCAR-5 = test system: OVCAR-5
OVCAR-8 = test system: OVCAR-8
PC-3 = test system: PC-3
RPMI-8226 = test system: RPMI-8226
RXF 393 = test system: RXF 393
SF-268 = test system: SF-268
SF-295 = test system: SF-295
SF-539 = test system: SF-539
SK-MEL-28 = test system: SK-MEL-28
SK-MEL-2 = test system: SK-MEL-2
SK-MEL-5 = test system: SK-MEL-5
SK-OV-3 = test system: SK-OV-3
SN12C = test system: SN12C
SNB-19 = test system: SNB-19
SNB-75 = test system: SNB-75
SNB-78 = test system: SNB-78
SR = test system: SR
SW-620 = test system: SW-620
T47D = test system: T47D
TK-10 = test system: TK-10
U-251 = test system: U-251
UACC-257 = test system: UACC-257
UACC-62 = test system: UACC-62
UO-31 = test system: UO-31
XF498 = test system: XF498
LXFL 529 = test system: LXFL 529

CN1N=C(N)c2cn(C3OC(COP(=O)(O)O)C(O)C3O)c3ncnc1c23 (stereo unspecified)
GI50 (786-0): 20.5 µM (inactive) | GI50 (A498): 33.7 µM (inactive) | GI50 (A549): 39.7 µM (inactive) | GI50 (ACHN): 3.16 µM (inactive) | GI50 (BT-549): 7.48 µM (inactive) | GI50 (CAKI-1): 1.18 µM (inactive) | GI50 (CCRF-CEM): 13 µM (inactive) | GI50 (COLO 205): 106 µM (inactive) | GI50 (DLD-1): 1.03 µM (active) | GI50 (DMS-114): 1620 µM (inactive) | GI50 (DMS-273): 18.9 µM (inactive) | GI50 (DU-145): 1.48 µM (inactive) | GI50 (EKVX): 7.52 µM (inactive) | GI50 (HCC 2998): 129 µM (inactive) | GI50 (HCT-116): 41.8 µM (inactive) | GI50 (HCT-15): 19.7 µM | GI50 (HL-60): 1.65 µM (inactive) | GI50 (HOP-18): 9.14 µM (inactive) | GI50 (HOP-62): 23.5 µM (inactive) | GI50 (HOP-92): 0.5 µM (active) | GI50 (HT-29): 17.3 µM (inactive) | GI50 (Hs-578T): 14.1 µM (inactive) | GI50 (IGROV-1): 0.935 µM (active) | GI50 (K562): 385 µM (inactive) | GI50 (KM-20L2): 58.5 µM (inactive) | GI50 (KM12): 2980 µM (inactive) | GI50 (LOX IMVI): 1.03 µM (active) | GI50 (M14): 7.33 µM (inactive) | GI50 (M19-MEL): 390 µM (inactive) | GI50 (MCF7): 1.65 µM (inactive) | GI50 (MDA-MB-231): 10.9 µM (inactive) | GI50 (MDA-MB-435): 34.3 µM (inactive) | GI50 (MDA-N): 38.4 µM (inactive) | GI50 (MOLT-4): 0.622 µM (active) | GI50 (Malme-3M): 136 µM (inactive) | GI50 (NCI-H226): 7.41 µM (inactive) | GI50 (NCI-H23): 25.9 µM (inactive) | GI50 (NCI-H460): 52.8 µM (inactive) | GI50 (NCI-H522): 2050 µM (inactive) | GI50 (NCI/ADR-RES): 4.08 µM (inactive) | GI50 (OVCAR-3): 35.2 µM (inactive) | GI50 (OVCAR-4): 5.86 µM (inactive) | GI50 (OVCAR-5): 9.84 µM (inactive) | GI50 (OVCAR-8): 1.28 µM (inactive) | GI50 (PC-3): 0.836 µM (active) | GI50 (RPMI-8226): 282 µM (inactive) | GI50 (RXF 393): 14 µM (inactive) | GI50 (SF-268): 55.6 µM (inactive) | GI50 (SF-295): 144 µM (inactive) | GI50 (SF-539): 32.4 µM (inactive) | GI50 (SK-MEL-28): 194 µM (inactive) | GI50 (SK-MEL-2): 8.26 µM (inactive) | GI50 (SK-MEL-5): 1080 µM (inactive) | GI50 (SK-OV-3): 0.822 µM (active) | GI50 (SN12C): 4.24 µM (inactive) | GI50 (SNB-19): 53.3 µM (inactive) | GI50 (SNB-75): 5.33 µM (inactive) | GI50 (SNB-78): 79.6 µM (inactive) | GI50 (SR): 10.8 µM (inactive) | GI50 (SW-620): 91.8 µM (inactive) | GI50 (T47D): 0.5 µM (active) | GI50 (TK-10): 2.88 µM (inactive) | GI50 (U-251): 379 µM (inactive) | GI50 (UACC-257): 152 µM (inactive) | GI50 (UACC-62): 28.4 µM (inactive) | GI50 (UO-31): 4.97 µM (inactive) | GI50 (XF498): 12.4 µM (inactive)

CC(C)OP(=O)(OC(C)C)C1=NN(c2ccc([N+](=O)[O-])cc2)C(P(=O)(OC(C)C)OC(C)C)=NN1c1ccc([N+](=O)[O-])cc1
GI50 (A549): 7.94 µM (inactive) | GI50 (ACHN): > 100 µM (inactive) | GI50 (CAKI-1): 63.5 µM (inactive) | GI50 (CCRF-CEM): 91.4 µM (inactive) | GI50 (COLO 205): > 100 µM (inactive) | GI50 (DLD-1): 5.32 µM (inactive) | GI50 (DMS-114): 12.8 µM (inactive) | GI50 (DMS-273): 22.5 µM (inactive) | GI50 (EKVX): 8.91 µM (inactive) | GI50 (HCC 2998): 47.2 µM (inactive) | GI50 (HCT-116): 7.6 µM (inactive) | GI50 (HCT-15): 9.18 µM | GI50 (HL-60): 2.55 µM (inactive) | GI50 (HOP-18): > 100 µM (inactive) | GI50 (HOP-62): > 100 µM (inactive) | GI50 (HOP-92): 7.62 µM (inactive) | GI50 (HT-29): 44 µM (inactive) | GI50 (IGROV-1): > 100 µM (inactive) | GI50 (K562): 6.95 µM (inactive) | GI50 (KM-20L2): > 100 µM (inactive) | GI50 (KM12): 67.3 µM (inactive) | GI50 (LOX IMVI): > 100 µM (inactive) | GI50 (LXFL 529): 22.9 µM (inactive) | GI50 (M14): > 100 µM (inactive) | GI50 (M19-MEL): > 100 µM (inactive) | GI50 (MOLT-4): 5.19 µM (inactive) | GI50 (Malme-3M): 72.1 µM (inactive) | GI50 (NCI-H226): > 100 µM (inactive) | GI50 (NCI-H23): > 100 µM (inactive) | GI50 (NCI-H460): 29.2 µM (inactive) | GI50 (NCI-H522): 46 µM (inactive) | GI50 (OVCAR-3): > 100 µM (inactive) | GI50 (OVCAR-4): > 100 µM (inactive) | GI50 (OVCAR-5): > 100 µM (inactive) | GI50 (OVCAR-8): 38.1 µM (inactive) | GI50 (RPMI-8226): 5.62 µM (inactive) | GI50 (RXF 393): > 100 µM (inactive) | GI50 (SF-268): > 100 µM (inactive) | GI50 (SF-539): 31 µM (inactive) | GI50 (SK-MEL-28): > 100 µM (inactive) | GI50 (SK-MEL-2): > 100 µM (inactive) | GI50 (SK-MEL-5): 24.5 µM (inactive) | GI50 (SK-OV-3): > 100 µM (inactive) | GI50 (SN12C): 44.7 µM (inactive) | GI50 (SNB-19): > 100 µM (inactive) | GI50 (SR): 9.08 µM (inactive) | GI50 (SW-620): > 100 µM (inactive) | GI50 (TK-10): > 100 µM (inactive) | GI50 (U-251): 42.7 µM (inactive) | GI50 (UACC-62): > 100 µM (inactive) | GI50 (UO-31): 95.7 µM (inactive) | GI50 (XF498): 7.98 µM (inactive)

CC(=O)c1sc(Nc2nnc(-c3ccc(-c4nnc(Nc5nc(C)c(C(C)=O)s5)o4)cc3)o2)nc1C
GI50 (786-0): > 100 µM (inactive) | GI50 (A498): > 100 µM (inactive) | GI50 (A549): > 10 µM (inactive) | GI50 (ACHN): > 100 µM (inactive) | GI50 (CAKI-1): > 10 µM (inactive) | GI50 (CCRF-CEM): > 100 µM (inactive) | GI50 (COLO 205): > 100 µM (inactive) | GI50 (DLD-1): > 100 µM (inactive) | GI50 (DMS-114): > 100 µM (inactive) | GI50 (DMS-273): > 100 µM (inactive) | GI50 (EKVX): > 100 µM (inactive) | GI50 (HCC 2998): > 100 µM (inactive) | GI50 (HCT-116): > 100 µM (inactive) | GI50 (HCT-15): > 100 µM | GI50 (HL-60): > 100 µM (inactive) | GI50 (HOP-18): > 100 µM (inactive) | GI50 (HOP-62): > 100 µM (inactive) | GI50 (HOP-92): > 100 µM (inactive) | GI50 (HT-29): > 100 µM (inactive) | GI50 (IGROV-1): > 100 µM (inactive) | GI50 (K562): > 100 µM (inactive) | GI50 (KM-20L2): > 100 µM (inactive) | GI50 (KM12): > 10 µM (inactive) | GI50 (LOX IMVI): > 100 µM (inactive) | GI50 (LXFL 529): > 100 µM (inactive) | GI50 (M14): > 100 µM (inactive) | GI50 (MOLT-4): > 100 µM (inactive) | GI50 (Malme-3M): > 100 µM (inactive) | GI50 (NCI-H226): > 100 µM (inactive) | GI50 (NCI-H23): > 100 µM (inactive) | GI50 (NCI-H460): > 100 µM (inactive) | GI50 (NCI-H522): > 10 µM (inactive) | GI50 (OVCAR-3): > 100 µM (inactive) | GI50 (OVCAR-4): > 100 µM (inactive) | GI50 (OVCAR-5): > 10 µM (inactive) | GI50 (OVCAR-8): > 100 µM (inactive) | GI50 (RPMI-8226): > 100 µM (inactive) | GI50 (RXF 393): > 100 µM (inactive) | GI50 (SF-268): > 100 µM (inactive) | GI50 (SF-295): > 100 µM (inactive) | GI50 (SK-MEL-28): > 100 µM (inactive) | GI50 (SK-OV-3): > 10 µM (inactive) | GI50 (SN12C): > 100 µM (inactive) | GI50 (SNB-19): > 100 µM (inactive) | GI50 (SNB-78): > 100 µM (inactive) | GI50 (SR): > 100 µM (inactive) | GI50 (SW-620): > 100 µM (inactive) | GI50 (TK-10): > 100 µM (inactive) | GI50 (U-251): > 100 µM (inactive) | GI50 (UACC-257): > 100 µM (inactive) | GI50 (UACC-62): > 100 µM (inactive) | GI50 (UO-31): > 10 µM (inactive)
